For 27 molecules, IC50 results are on record in patent US11590139B2, “Substituted aminopurine compounds, compositions thereof, and methods of treatment therewith” (Signal Pharmaceuticals, LLC, priority 2014, dated 2023).

Where only a bound is given, the exact number is not on record here.

One assay relates to Lox-IMVI melanoma cell line. The assay can be described thus: Lox-IMVI anti-proliferative assay (growth inhibition, Cell Titer-Glo). The class given is cell-based, human. The note with it: Homo sapiens; IC50 activity level in the cell-based Lox-IMVI anti-proliferative assay; read-out: Activity. In outline: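 Viability read by ATP luminescence (Cell Titer-Glo) at t0 and after 72 h at 37 °C, 5% CO2, with normalisation to DMSO-treated cells. Compound tested at 0.5 nM–10 μM in 3-fold, 10-point series (0.2% DMSO final) on Lox-IMVI in RPMI+10% FBS; IC50 by 4-parameter sigmoidal fit.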
A general note: ATP-based viability assays read luminescence as a measure of living cells.
Turning to `CC[C@@H](CO)Nc1ncc2nc(Nc3c(F)cc(F)cc3F)n([C@H]3CC[C@@H](C(N)=O)CC3)c2n1` [Example 143, (1R,4s)-4-(2-((S)-1-hydroxybutan-2-ylamino)-8-(2,4,6-trifluorophenylamino)-9H-purin-9-yl)cyclohexanecarboxamide], the IC50 was more than 1 µM.
Still for that read-out and setting: the figure for `Cc1cccc(F)c1Nc1nc2cnc(NC3CCOCC3)nc2n1[C@H]1CC[C@@H](C(N)=O)CC1` [Example 63, (1s,4s)-4-(8-(2-fluoro-6-methylphenylamino)-2-(tetrahydro-2H-pyran-4-ylamino)-9H-purin-9-yl)cyclohexanecarboxamide] is more than 1 µM.
Same read-out and setting: the same measure for `C[C@@H](CO)Nc1ncc2nc(Nc3c(F)cc(C#N)cc3F)n([C@H]3CC[C@@H](C(N)=O)CC3)c2n1` [Example 394, (1R,4s)-4-(8-(4-cyano-2,6-difluorophenylamino)-2-((S)-1-hydroxypropan-2-ylamino)-9H-purin-9-yl)cyclohexanecarboxamide]: more than 1 µM; for `NC(=O)[C@H]1CC[C@@H](n2c(Nc3c(F)cc(F)cc3Cl)nc3cnc(N[C@@H]4CCC[C@H](O)C4)nc32)CC1` [Example 351, (1S,4s)-4-(8-(2-chloro-4,6-difluorophenylamino)-2-((1R,3S)-3-hydroxycyclohexylamino)-9H-purin-9-yl)cyclohexanecarboxamide]: more than 1 µM; for `Cc1c(Nc2nc3cnc(NC4CCOCC4)nc3n2[C@H]2CC[C@@H](C(N)=O)CC2)ccc(Cl)c1F` [Example 89, (1s,4s)-4-(8-(4-chloro-3-fluoro-2-methylphenylamino)-2-(tetrahydro-2H-pyran-4-ylamino)-9H-purin-9-yl)cyclohexanecarboxamide]: more than 1 µM.
Still for that read-out and setting: the same measure for `NC(=O)[C@H]1CC[C@@H](n2c(Nc3c(Cl)cc(Cl)cc3Cl)nc3cnc(N[C@H]4CCC[C@@H]4O)nc32)CC1` [Example 270, (1R,4s)-4-(2-((1S,2S)-2-hydroxycyclopentylamino)-8-(2,4,6-trichlorophenylamino)-9H-purin-9-yl)cyclohexanecarboxamide]: more than 1 µM; for `NC(=O)[C@H]1CC[C@@H](n2c(Nc3cc(F)c(F)cc3F)nc3cnc(NC4CCOCC4)nc32)CC1` [Example 58, (1s,4s)-4-(2-(tetrahydro-2H-pyran-4-ylamino)-8-(2,4,5-trifluorophenylamino)-9H-purin-9-yl)cyclohexanecarboxamide]: 0.5 to 1 µM; for `NC(=O)[C@H]1CC[C@@H](n2c(Nc3ccc(Cl)c(F)c3Cl)nc3cnc(NC4CCOCC4)nc32)CC1` [Example 82, (1s,4s)-4-(8-(2,4-dichloro-3-fluorophenylamino)-2-(tetrahydro-2H-pyran-4-ylamino)-9H-purin-9-yl)cyclohexanecarboxamide]: more than 1 µM.

Staying with this assay, now noted: Homo sapiens; Lox-IMVI anti-proliferative assay, IC50 activity level; read-out: Activity.
For `C[C@@H]1COCC[C@H]1Nc1ncc2nc(Nc3c(F)cc(Cl)cc3Cl)n([C@H]3CC[C@@H](C(N)=O)CC3)c2n1` [Example 503, (1S,4s)-4-(8-(2,4-dichloro-6-fluorophenylamino)-2-((3S,4R)-3-methyltetrahydro-2H-pyran-4-ylamino)-9H-purin-9-yl)cyclohexanecarboxamide], the IC50 is less than 0.25 µM.
On the same count and under the same terms, the figure for `C[C@]1(C(N)=O)CC[C@@H](n2c(Nc3c(F)cc(F)cc3Cl)nc3cnc(NC4CCCC4)nc32)CC1` [Example 558, (1s,4s)-4-(8-(2-chloro-4,6-difluorophenylamino)-2-(cyclopentylamino)-9H-purin-9-yl)-1-methylcyclohexanecarboxamide] is less than 0.25 µM; for `C[C@]1(C(N)=O)CC[C@@H](n2c(Nc3c(F)cc(F)cc3F)nc3cnc(N[C@@H]4CCC[C@H](O)C4)nc32)CC1` [Example 563, (1S,4s)-4-(2-((1R,3S)-3-hydroxycyclohexylamino)-8-(2,4,6-trifluorophenylamino)-9H-purin-9-yl)-1-methylcyclohexanecarboxamide] it is more than 1 µM.
Same read-out and setting: the same measure for `C[C@]1(C(N)=O)CC[C@H](n2c(Nc3c(F)cc(F)cc3Cl)nc3cnc(NC4CCC(F)(F)CC4)nc32)CC1` [Example 477, (1r,4r)-4-(8-(2-chloro-4,6-difluorophenylamino)-2-(4,4-difluorocyclohexylamino)-9H-purin-9-yl)-1-methylcyclohexanecarboxamide]: more than 1 µM; for `C[C@]1(O)CCC[C@@H](Nc2ncc3nc(Nc4ccc(F)cc4Cl)n([C@H]4CC[C@@H](C(N)=O)CC4)c3n2)C1` [Example 429, (1S,4s)-4-(8-(2-chloro-4-fluorophenylamino)-2-((1R,3S)-3-hydroxy-3-methylcyclohexylamino)-9H-purin-9-yl)cyclohexanecarboxamide]: more than 1 µM.
Same read-out and setting: the figure for `C[C@]1(C(N)=O)CC[C@@H](n2c(Nc3c(Cl)cc(OC(F)(F)F)cc3Cl)nc3cnc(NC4CCC4)nc32)CC1` [Example 598, (1s,4s)-4-(2-(cyclobutylamino)-8-(2,6-dichloro-4-(trifluoromethoxy)phenylamino)-9H-purin-9-yl)-1-methylcyclohexanecarboxamide] is more than 1 µM; for `C[C@H]1COCC[C@H]1Nc1ncc2nc(Nc3c(F)cc(Cl)cc3F)n([C@H]3CC[C@@H](C(N)=O)CC3)c2n1` [Example 508, (1S,4s)-4-(8-(4-chloro-2,6-difluorophenylamino)-2-((3R,4R)-3-methyltetrahydro-2H-pyran-4-ylamino)-9H-purin-9-yl)cyclohexanecarboxamide] it is 0.5 to 1 µM; for `C[C@]1(C(N)=O)CC[C@@H](n2c(Nc3c(Cl)cc(F)cc3Cl)nc3cnc(NC4CCC(F)(F)CC4)nc32)CC1` [Example 526, (1s,4s)-4-(8-(2,6-dichloro-4-fluorophenylamino)-2-(4,4-difluorocyclohexylamino)-9H-purin-9-yl)-1-methylcyclohexanecarboxamide] it is less than 0.25 µM.
Turning to `C[C@@H](CO)Nc1ncc2nc(Nc3c(F)cc(F)cc3F)n([C@H]3CC[C@@](C)(C(N)=O)CC3)c2n1` [Example 546, (1R,4s)-4-(2-((S)-1-hydroxypropan-2-ylamino)-8-(2,4,6-trifluorophenylamino)-9H-purin-9-yl)-1-methylcyclohexanecarboxamide], the IC50 lay within 0.25 to 0.5 µM.
Regarding `COC(=O)N1CCCC(Nc2ncc3nc(Nc4c(F)cccc4Cl)n([C@H]4CC[C@@H](C(N)=O)CC4)c3n2)C1` (stereo partly drawn) [Example 406, (R)-methyl 3-(9-((1s,4S)-4-carbamoylcyclohexyl)-8-(2-chloro-6-fluorophenylamino)-9H-purin-2-ylamino)piperidine-1-carboxylate], the IC50 is more than 1 µM.

The same assay, now with this note: Homo sapiens; Lox-IMVI anti-proliferative assay, cell-based; read-out: Activity (IC50 activity level).
As for `N#Cc1cc(F)c(Nc2nc3cnc(N[C@@H]4CCOC[C@H]4F)nc3n2[C@H]2CC[C@@H](C(N)=O)CC2)c(F)c1` [Example 801, (1S,4s)-4-(8-(4-cyano-2,6-difluorophenylamino)-2-((3S,4R)-3-fluorotetrahydro-2H-pyran-4-ylamino)-9H-purin-9-yl)cyclohexanecarboxamide], the IC50 is less than 0.25 µM.

The same assay, now with this note: Homo sapiens; Lox-IMVI melanoma cell line, anti-proliferative assay; read-out: Activity (IC50 activity level).
As for `C[C@]1(C(N)=O)CC[C@@H](n2c(Nc3c(F)cc(Cl)cc3Cl)nc3cnc(N[C@@H]4CCC[C@@H](O)C4)nc32)CC1` [Example 620, (1S,4s)-4-(8-(2,4-dichloro-6-fluorophenylamino)-2-((1R,3R)-3-hydroxycyclohexylamino)-9H-purin-9-yl)-1-methylcyclohexanecarboxamide], the IC50 lay in the range of 0.5 to 1 µM.
On the same count and under the same terms, the same measure for `Cc1ccc(S(=O)(=O)N2CCC[C@@H](Nc3ncc4nc(Nc5c(Cl)cc(F)cc5Cl)n([C@H]5CC[C@@H](C(N)=O)CC5)c4n3)C2)cc1` [Example 794, (1S,4s)-4-(8-(2,6-dichloro-4-fluorophenylamino)-2-((R)-1-tosylpiperidin-3-ylamino)-9H-purin-9-yl)cyclohexanecarboxamide]: more than 1 µM; for `NC(=O)[C@H]1CC[C@@H](n2c(Nc3c(F)cc(Cl)cc3F)nc3cnc(N[C@@H]4CCOC[C@H]4F)nc32)CC1` [Example 671, (1S,4s)-4-(8-(4-chloro-2,6-difluorophenylamino)-2-((3S,4R)-3-fluorotetrahydro-2H-pyran-4-ylamino)-9H-purin-9-yl)cyclohexanecarboxamide]: less than 0.25 µM; for `CC(C)OC(=O)N1CCC[C@@H](Nc2ncc3nc(Nc4c(Cl)cc(Cl)cc4Cl)n([C@H]4CC[C@@H](C(N)=O)CC4)c3n2)C1` [Example 768, (R)-isopropyl 3-(9-((1s,4S)-4-carbamoylcyclohexyl)-8-(2,4,6-trichlorophenylamino)-9H-purin-2-ylamino)piperidine-1-carboxylate]: 0.5 to 1 µM.
With `C[C@]1(C(N)=O)CC[C@@H](n2c(Nc3c(F)cc(F)cc3F)nc3cnc(NC4CCC4)nc32)CC1` [Example 607, (1s,4s)-4-(2-(cyclobutylamino)-8-(2,4,6-trifluorophenylamino)-9H-purin-9-yl)-1-methylcyclohexanecarboxamide], the IC50 was less than 0.25 µM.
For the molecule `C[C@@H]1COCC[C@@H]1Nc1ncc2nc(Nc3c(Cl)cc(C#N)cc3Cl)n([C@H]3CC[C@@](C)(C(N)=O)CC3)c2n1` [Example 763, (1S,4s)-4-(8-(2,6-dichloro-4-cyanophenylamino)-2-((3S,4R)-3-methyltetrahydro-2H-pyran-4-ylamino)-9H-purin-9-yl)-1-methylcyclohexanecarboxamide], the IC50 was less than 0.25 µM.
Still for that read-out and setting: the figure for `C[C@@H]1COCC[C@H]1Nc1ncc2nc(Nc3c(F)cc(Cl)cc3Cl)n([C@H]3CC[C@@](C)(C(N)=O)CC3)c2n1` [Example 717, (1S,4s)-4-(8-(2,4-dichloro-6-fluorophenylamino)-2-((3S,4R)-3-methyltetrahydro-2H-pyran-4-ylamino)-9H-purin-9-yl)-1-methylcyclohexanecarboxamide] is less than 0.25 µM.

Staying with this assay, now noted: Lox-IMVI anti-proliferative assay, IC50 activity level; read-out: Activity.
Turning to “(R)-methyl 3-(9-((1s,4S)-4- carbamoylcyclohexyl)-8-(2,3,4- trifluorophenylamino)-9H-purin-2- ylamino)piperidine-1-carboxylate [Example 414]”, the IC50 is more than 1 µM.
